Measurements reported in PubChem BioAssay AID1259411 (Chemical Carcinogenesis Research Information System (CCRIS), 2018).
Activity calls are given as the source filed them. The rule behind the calls is not given here.

System: rodent carcinogenicity bioassays, tumor incidence
Assay: CCRIS carcinogenicity studies
Settings: Dose: 0
How it was run: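 NCI-built, expert-reviewed records of carcinogenicity and related test outcomes (mutagenicity, tumor promotion/inhibition) compiled from published and report sources, historical span 1985-2011, not updated.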

In the case of `C=CC#N`, the carcinogen call (Species: RAT, Strain/Sex: SPRAGUE-DAWLEY/FEMALE, Route: GAVAGE, 5 MG/KG IN OLIVE OIL 1/D 3 D/WK FOR 52 WK (STUDY DURATION: LIFETIME)) is reported as “inactive; negative”, the carcinogen call (Species: RAT, Strain/Sex: SPRAGUE-DAWLEY/FEMALE, Route: INHALATION, 60 PPM 4 HR/D 5 D/WK FOR 7 WK THEN 7 HR/D 5 D/WK FOR 8 WK ADMINISTRATION STARTED WITH EMBRYOS ON 12TH DAY OF GESTATIO) is reported as “inactive; negative” and the carcinogen call (Species: RAT, Strain/Sex: SPRAGUE-DAWLEY/FEMALE, Route: INHALATION, 60 PPM 4 HR/D 5 D/WK FOR 7 WK THEN 7 HR/D 5 D/WK FOR 97 WK ADMINISTRATION STARTED WITH EMBRYOS ON DAY 12 OF GESTATION, Tumor Site: Type of Lesion: MAMMARY GLAND: TUMORS, LIVER: ANGIOSARCOMA, BRAIN: GLIOMA, Tumor Site: Type of Lesion: MAMMARY GLAND: TUMORS, LIVER: ANGIOSARCOMA, BRAIN: GLIOMA) is reported as “active; positive”. For the same compound, the carcinogen call (Species: RAT, Strain/Sex: SPRAGUE-DAWLEY/FEMALE, Route: ORAL, 1, 100 PPM IN DRINKING WATER FOR 22 MO (STUDY DURATION: 20 MO), 1, 100 PPM IN DRINKING WATER FOR 22 MO (STUDY DURATION: 20 MO), Tumor Site: Type of Lesion: BRAIN: ASTROCYTOMA, ZYMBAL'S GLAND/EAR CANAL: ADENOMA OR CARCINOMA, FORESTOMACH: SQUAMOUS CELL PAPILLOMA/PAPILLOMA OR SQ, Tumor Site: Type of Lesion: BRAIN: ASTROCYTOMA, ZYMBAL'S GLAND/EAR CANAL: ADENOMA OR CARCINOMA, FORESTOMACH: SQUAMOUS CELL PAPILLOMA/PAPILLOMA OR SQ) was “active; positive”, the carcinogen call (Species: RAT, Strain/Sex: SPRAGUE-DAWLEY/MALE, Route: GAVAGE, 0.1, 10 MG/KG/D 7D/WK FOR 20 MO (STUDY DURATION: 20 MO), 0.1, 10 MG/KG/D 7D/WK FOR 20 MO (STUDY DURATION: 20 MO), Tumor Site: Type of Lesion: BRAIN: ASTROCYTOMA, ZYMBAL'S GLAND/EAR CANAL: CARCINOMA, FORESTOMACH: SQUAMOUS CELL PAPILLOMA/PAPILLOMA, SQUAMOUS CELL C, Tumor Site: Type of Lesion: BRAIN: ASTROCYTOMA, ZYMBAL'S GLAND/EAR CANAL: CARCINOMA, FORESTOMACH: SQUAMOUS CELL PAPILLOMA/PAPILLOMA, SQUAMOUS CELL C) was “active; positive” and the carcinogen call (Species: RAT, Strain/Sex: SPRAGUE-DAWLEY/MALE, Route: GAVAGE, 5 MG/KG BW IN OLIVE OIL 3/WK FOR 52 WK (STUDY DURATION: LIFETIME), Tumor Site: Type of Lesion: [BRAIN WAS ONLY SITE EVALUATED]) was “inactive; negative”. The carcinogen call (Species: RAT, Strain/Sex: SPRAGUE-DAWLEY/MALE, Route: GAVAGE, 5 MG/KG IN OLIVE OIL 1/D 3 D/WK FOR 52 WK (STUDY DURATION: LIFETIME)) was “inactive; negative”, the carcinogen call (Species: RAT, Strain/Sex: SPRAGUE-DAWLEY/MALE, Route: INHALATION, 60 PPM 4 HR/D 5 D/WK FOR 7 WK THEN 7 HR/D 5 D/WK FOR 8 WK ADMINISTRATION STARTED WITH EMBRYOS ON 12TH DAY OF GESTATIO) was “inactive; negative” and the carcinogen call (Species: RAT, Strain/Sex: SPRAGUE-DAWLEY/MALE, Route: INHALATION, 60 PPM 4 HR/D 5 D/WK FOR 7 WK THEN 7 HR/D 5 D/WK FOR 97 WK ADMINISTRATION STARTED WITH EMBRYOS ON DAY 12 OF GESTATION, Tumor Site: Type of Lesion: ZYMBAL GLAND: CARCINOMA, LIVER: HEPATOMA, BRAIN: GLIOMA, Tumor Site: Type of Lesion: ZYMBAL GLAND: CARCINOMA, LIVER: HEPATOMA, BRAIN: GLIOMA) was “active; positive”. The carcinogen call (Species: RAT, Strain/Sex: SPRAGUE-DAWLEY/MALE, Route: ORAL, 1, 100 PPM IN DRINKING WATER FOR 22 MO (STUDY DURATION: 20 MO), 1, 100 PPM IN DRINKING WATER FOR 22 MO (STUDY DURATION: 20 MO), Tumor Site: Type of Lesion: BRAIN: ASTROCYTOMA, ZYMBAL'S GLAND/EAR CANAL: ADENOMA OR CARCINOMA, FORESTOMACH: SQUAMOUS CELL PAPILLOMA/PAPILLOMA OR SQ, Tumor Site: Type of Lesion: BRAIN: ASTROCYTOMA, ZYMBAL'S GLAND/EAR CANAL: ADENOMA OR CARCINOMA, FORESTOMACH: SQUAMOUS CELL PAPILLOMA/PAPILLOMA OR SQ) was “active; positive”, the carcinogen call (Species: RAT, Strain/Sex: SPRAGUE-DAWLEY/MALE, Route: ORAL, 20, 100, 500 PPM IN DRINKING WATER FOR DURATION OF STUDY (STUDY DURATION: 2 YR), 20, 100, 500 PPM IN DRINKING WATER FOR DURATION OF STUDY (STUDY DURATION: 2 YR), Tumor Site: Type of Lesion: ZYMBAL'S GLAND: TUMOR) was “active; positive” and the carcinogen call (Species: Rat, Strain/Sex: Sprague Dawley/Female (80/group, Controls; 48/group, Experimental), Route: Oral, 35, 100, 300 ppm (0; 4.4; 10.8; 25.0 mg/kg) in drinking water for 2 yr, 35, 100, 300 ppm (0; 4.4; 10.8; 25.0 mg/kg) in drinking water for 2 yr, Tumor Site: Type of Lesion: Nervous system (brain and spinal cord): Combined focal or multifocal glial cell proliferation and/or astrocytoma (1/80) was “active; positive”. For the same compound, the carcinogen call (Species: Rat, Strain/Sex: Sprague Dawley/Male (80/group, Controls; 48/group, Experimental), Route: Oral, 35, 100, 300 ppm (0; 3.4; 8.5; 21.3 mg/kg in drinking water for 2 yr), 35, 100, 300 ppm (0; 3.4; 8.5; 21.3 mg/kg in drinking water for 2 yr), Tumor Site: Type of Lesion: Nervous system (brain and spinal cord): Combined focal or multifocal glial cell proliferation and/or astrocytoma (1/80) was “active; positive”.
